From patent US20210238192A1, “VASCULAR ADHESION PROTEIN-1 (VAP-1) MODULATORS AND THERAPEUTIC USES THEREOF” (Blade Therapeutics, Inc., priority 2018, published 2021)
Counter-ions that a name gives are not always drawn. Like-named read-outs stand apart in the source and are kept apart here.

Tests used:
Format in all cases: biochemical
Human VAP-1 = target: T1, Human VAP-1 (Homo sapiens, UniProt Q16853); assay: VAP-1 inhibition assay (Amplex Red continuous fluorescence assay)
T1 sequence (Q16853 1-763): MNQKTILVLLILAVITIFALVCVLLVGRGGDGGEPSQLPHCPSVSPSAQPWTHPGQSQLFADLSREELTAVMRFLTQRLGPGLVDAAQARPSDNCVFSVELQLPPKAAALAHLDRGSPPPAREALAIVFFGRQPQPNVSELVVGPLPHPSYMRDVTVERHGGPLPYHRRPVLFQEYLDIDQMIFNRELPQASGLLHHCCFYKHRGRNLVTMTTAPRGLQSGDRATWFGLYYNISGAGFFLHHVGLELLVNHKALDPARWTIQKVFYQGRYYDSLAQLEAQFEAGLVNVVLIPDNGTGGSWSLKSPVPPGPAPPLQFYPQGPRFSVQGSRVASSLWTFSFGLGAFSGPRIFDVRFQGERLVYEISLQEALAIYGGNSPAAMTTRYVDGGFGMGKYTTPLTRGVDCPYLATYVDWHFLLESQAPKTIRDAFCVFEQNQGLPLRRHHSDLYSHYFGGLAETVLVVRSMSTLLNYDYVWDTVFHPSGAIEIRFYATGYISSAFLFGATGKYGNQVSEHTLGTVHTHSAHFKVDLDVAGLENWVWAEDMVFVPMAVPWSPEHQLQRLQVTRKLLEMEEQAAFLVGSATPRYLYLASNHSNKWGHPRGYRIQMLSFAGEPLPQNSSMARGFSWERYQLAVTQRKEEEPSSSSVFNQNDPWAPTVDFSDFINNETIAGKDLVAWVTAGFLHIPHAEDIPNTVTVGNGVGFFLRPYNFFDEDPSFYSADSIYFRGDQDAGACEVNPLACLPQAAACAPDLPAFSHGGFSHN
Method: (§1) VAP-1, DAO, MAO-A, MAO-B, and HRP activity and inhibition thereof was assessed by means of a continuous fluorescence assay. The Amplex Red Hydrogen Peroxide/Peroxidase Assay (ThermoFisher) was optimized for detecting amine oxidase (AO) activity. In an enzyme-coupled reaction, the H2O2 generated by AO reacts 1:1 with Amplex Red reagent to produce fluorescent product resorufin.
(§2) Assays were typically setup in black 384-well plates using automated liquid handling as follows. VAP-1/MAO assay buffer contains […] sodium phosphate, pH 7.4; DAO assay buffer contains 50 mM HEPES, pH 7.5; HRP assay buffer contains 100 mM CHES, 1 mM MgCl2, 50 mM NaCl, 0.05% BSA, pH 9.0. Inhibitors were serially diluted in DMSO and used to setup 2× mixtures with AO in the aforementioned buffer. After 30 min pre-incubation at 37° C. (VAP-1, HRP) or room temp (DAO, MAO), the reaction was initiated by adding a 2× mix of Amplex Red, HRP (coupling enzyme), and substrate (benzylamine, histamine, tyramine, benzylamine, H2O2, for VAP-1, DAO, MAO-A, MAO-B, and HR, respectively) in the same buffer. Reaction progress curve data were typically collected for 5 min using excitation/emission wavelengths of 510 nm/565 nm on FLIPR-Tetra plate readers (Molecular Devices Inc). Reaction rates were calculated from progress curve slopes typically over 60-150 sec. Dose response curves (rate vs. log inhibitor concentration) were typically fit to a 4-parameter logistic function to extract IC50 values.

Human MAO-A = target: T2, Human MAO-A (Homo sapiens, UniProt P21397); assay: MAO-A inhibition (Amplex Red continuous fluorescence assay)
T2 sequence (P21397 1-527): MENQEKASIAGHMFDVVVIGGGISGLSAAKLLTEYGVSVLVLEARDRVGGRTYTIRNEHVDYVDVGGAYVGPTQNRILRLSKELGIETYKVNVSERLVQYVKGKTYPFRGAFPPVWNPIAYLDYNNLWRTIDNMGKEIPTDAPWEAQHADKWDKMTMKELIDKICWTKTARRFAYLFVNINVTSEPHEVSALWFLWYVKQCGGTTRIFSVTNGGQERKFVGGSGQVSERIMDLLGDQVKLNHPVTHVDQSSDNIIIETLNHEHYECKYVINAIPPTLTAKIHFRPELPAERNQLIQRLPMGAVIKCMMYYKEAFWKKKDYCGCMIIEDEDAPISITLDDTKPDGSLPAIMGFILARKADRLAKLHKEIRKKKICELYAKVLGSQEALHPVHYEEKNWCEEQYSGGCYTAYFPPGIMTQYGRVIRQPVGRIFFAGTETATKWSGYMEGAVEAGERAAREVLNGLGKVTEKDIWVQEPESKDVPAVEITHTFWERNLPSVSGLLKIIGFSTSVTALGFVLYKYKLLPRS
Method: as §1, §2

Human MAO-B = target: T3, Human MAO-B (Homo sapiens, UniProt P27338); assay: MAO-B inhibition (Amplex Red continuous fluorescence assay)
T3 sequence (P27338 1-520): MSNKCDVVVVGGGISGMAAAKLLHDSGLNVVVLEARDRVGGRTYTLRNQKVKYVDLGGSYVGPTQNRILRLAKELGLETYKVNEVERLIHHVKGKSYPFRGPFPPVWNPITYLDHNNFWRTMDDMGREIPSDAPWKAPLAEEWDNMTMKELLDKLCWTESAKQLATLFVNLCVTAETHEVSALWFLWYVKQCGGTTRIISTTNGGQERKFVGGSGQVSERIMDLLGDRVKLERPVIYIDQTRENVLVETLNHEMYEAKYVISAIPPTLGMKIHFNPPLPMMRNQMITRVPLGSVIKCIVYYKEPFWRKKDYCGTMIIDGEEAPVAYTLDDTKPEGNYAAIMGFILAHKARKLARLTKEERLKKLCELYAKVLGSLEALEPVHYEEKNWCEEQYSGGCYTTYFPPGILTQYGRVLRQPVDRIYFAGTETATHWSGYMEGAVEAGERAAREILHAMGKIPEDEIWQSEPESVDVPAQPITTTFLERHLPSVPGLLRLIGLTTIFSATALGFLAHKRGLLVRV
Method: as §1, §2

Human DAO = target: T4, Human DAO (Homo sapiens, UniProt P19801); assay: DAO inhibition (Amplex Red continuous fluorescence assay)
T4 sequence (P19801 20-751): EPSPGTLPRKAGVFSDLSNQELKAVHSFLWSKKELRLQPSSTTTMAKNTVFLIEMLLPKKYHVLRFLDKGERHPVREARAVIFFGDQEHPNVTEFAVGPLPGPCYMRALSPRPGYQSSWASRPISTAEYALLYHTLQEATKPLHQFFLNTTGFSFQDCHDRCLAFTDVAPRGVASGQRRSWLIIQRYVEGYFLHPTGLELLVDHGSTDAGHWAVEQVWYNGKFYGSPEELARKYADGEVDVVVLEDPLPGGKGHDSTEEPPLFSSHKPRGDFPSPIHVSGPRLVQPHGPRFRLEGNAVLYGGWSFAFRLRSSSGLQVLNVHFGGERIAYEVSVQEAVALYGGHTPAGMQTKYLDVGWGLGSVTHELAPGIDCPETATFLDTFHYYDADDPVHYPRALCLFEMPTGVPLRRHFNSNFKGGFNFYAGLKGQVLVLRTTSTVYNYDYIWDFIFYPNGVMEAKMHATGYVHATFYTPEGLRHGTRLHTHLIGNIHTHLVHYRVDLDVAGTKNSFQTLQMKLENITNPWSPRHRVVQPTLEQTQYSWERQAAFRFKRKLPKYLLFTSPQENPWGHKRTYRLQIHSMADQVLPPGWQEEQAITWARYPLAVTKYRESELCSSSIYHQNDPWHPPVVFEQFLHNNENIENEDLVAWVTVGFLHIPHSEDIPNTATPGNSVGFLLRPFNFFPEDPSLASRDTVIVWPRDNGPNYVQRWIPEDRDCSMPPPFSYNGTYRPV
Method: as §1, §2

[1] = 30 min pre-incubation at 37° C., substrate benzylamine, read-out: Human VAP-1 IC50
[2] = 30 min pre-incubation at room temp, substrate tyramine, read-out: Human MAO-A IC50
[3] = 30 min pre-incubation at room temp, substrate benzylamine, read-out: Human MAO-B IC50
[4] = 30 min pre-incubation at room temp, substrate histamine, read-out: Human DAO IC50

Row | IC50 (Human VAP-1; [1]) [µM] | IC50 (Human MAO-A; [2]) [µM] | IC50 (Human MAO-B; [3]) [µM] | IC50 (Human DAO; [4]) [µM] | SMILES | IC50 (Human VAP-1) [µM] | IC50 (Human MAO-A) [µM] | IC50 (Human MAO-B) [µM] | IC50 (Human DAO) [µM]
1 | < 3 | 3 to 10 | < 3 | < 3 | NC/C(=C\F)COc1ccc(-c2ncccn2)cc1 [Compound 37, (E)-3-fluoro-2-((4-(pyrimidin-2-yl)phenoxy)methyl)prop-2-en-1-amine hydrochloride] |  |  |  | 
2 | < 3 | < 3 | < 3 | < 3 | NC/C(=C/F)COc1ccc(-c2ncccn2)cc1 [Compound 38, (Z)-3-fluoro-2-((4-(pyrimidin-2-yl)phenoxy)methyl)prop-2-en-1-amine hydrochloride] |  |  |  | 
3 | < 3 | > 10 | < 3 | < 3 | Cn1cnc(-c2ccc(OC/C(=C/F)CN)cc2)c1 [Compound 39, (E)-3-fluoro-2-((4-(1-methyl-1H-imidazol-4-yl)phenoxy)methyl)prop-2-en-1-amine] |  |  |  | 
4 | < 3 | 3 to 10 | < 3 | < 3 | NC/C(=C\F)COc1ccc(-c2cnc[nH]2)cc1 [Compound 40, (E)-2-((4-(1H-imidazol-5-yl)phenoxy)methyl)-3-fluoroprop-2-en-1-amine] |  |  |  | 
5 | < 3 | < 3 | < 3 | > 10 | NC/C(=C\F)COCc1cccs1 [Compound 41, (E)-3-fluoro-2-((thiophen-2-ylmethoxy)methyl)prop-2-en-1-amine] |  |  |  | 
6 | < 3 | < 3 | < 3 | < 3 | NC/C(=C\F)COc1ccc(-c2ccn[nH]2)cc1 [Compound 42, (E)-2-((4-(1H-pyrazol-5-yl)phenoxy)methyl)-3-fluoroprop-2-en-1-amine hydrochloride] |  |  |  | 
7 | < 3 | 3 to 10 | < 3 | < 3 | NC/C(=C\F)COc1ccc(-c2ncon2)cc1 [Compound 43, (E)-2-((4-(1,2,4-oxadiazol-3-yl)phenoxy)methyl)-3-fluoroprop-2-en-1-amine hydrochloride] |  |  |  | 
8 | < 3 | < 3 | < 3 | < 3 | NC/C(=C/F)COc1ccc(-c2ncon2)cc1 [Compound 44, (Z)-2-((4-(1,2,4-OXADIAZOL-3-YL)PHENOXY)METHYL)-3-FLUOROPROP-2-EN-1-AMINE HYDROCHLORIDE] |  |  |  | 
9 | < 3 | > 10 | < 3 | > 10 | CC(C)(C)NC(=O)c1ccc(NC/C(=C/F)CN)cc1 [Compound 45, (E)-4-((2-(aminomethyl)-3-fluoroalkyl)amino)-n-(tert-butyl)benzamide hydrochloride] |  |  |  | 
10 | < 3 | > 10 | < 3 | 3 to 10 | CC(C)(C)NC(=O)c1ccc(NC/C(=C\F)CN)cc1 [Compound 46, (Z)-4-((2-(aminomethyl)-3-fluoroalkyl)amino)-N-(tert-butyl)benzamide hydrochloride] |  |  |  | 
11 |  |  |  |  | NC/C(=C\F)CNC(=O)Oc1ccccc1 [Compound 47, phenyl (E)-(2-(aminomethyl)-3-fluoroalkyl)carbamate hydrochloride] | < 3 | < 3 | > 10 | > 10
12 | < 3 | > 10 | < 3 | < 3 | Cn1nccc1-c1ccc(OC/C(=C/F)CN)cc1 [Compound 48, (E)-3-fluoro-2-((4-(1-methyl-1H-pyrazol-5-yl)phenoxy)methyl)prop-2-en-1-amine hydrochloride] |  |  |  | 
13 | < 3 | < 3 | < 3 | < 3 | Cn1nccc1-c1ccc(OC/C(=C\F)CN)cc1 [Compound 49, (Z)-3-fluoro-2-((4-(1-methyl-1H-pyrazol-5-yl)phenoxy)methyl)prop-2-en-1-amine hydrochloride] |  |  |  | 
14 | < 3 | 3 to 10 | < 3 | < 3 | Cn1ccc(-c2ccc(OC/C(=C/F)CN)cc2)n1 [Compound 50, (E)-3-fluoro-2-((4-(1-methyl-1H-pyrazol-3-yl)phenoxy)methyl)prop-2-en-1-amine hydrochloride] |  |  |  | 
15 | < 3 | > 10 | > 10 | 3 to 10 | NC/C(=C\F)COc1ccc(-c2nnn[nH]2)cc1 [Compound 51, (E)-2-((4-(1H-tetrazol-5-yl)phenoxy)methyl)-3-fluoroprop-2-en-1-amine hydrochloride] |  |  |  | 
16 | < 3 | > 10 | > 10 | < 3 | NC/C(=C/F)COc1ccc(-c2nnn[nH]2)cc1 [Compound 52, (Z)-2-((4-(1H-tetrazol-5-yl)phenoxy)methyl)-3-fluoroprop-2-en-1-amine hydrochloride] |  |  |  | 
